The values that follow come from publication PMC9997437, “Initiation and modulation of Tau protein phase separation by the drug suramin” (Scientific Reports, 2023).

This experiment concerns the target T1, Tau (Homo sapiens, UniProt P10636).
T1 construct: gene MAPT; full-length wildtype Tau (hTau40; 441 aa; 2N4R isoform, UniprotKB P10636-8)
Kind of experiment: microscale thermophoresis (MST) with fluorescently labelled Tau; supported by trDLS, microscopy and TEM of Tau:suramin condensates. In kind it is binding.

SMILES strings stand for the structures. pKd: −log10 of the molar value.

T1 sequence (P10636 2-441 isoform P10636-8): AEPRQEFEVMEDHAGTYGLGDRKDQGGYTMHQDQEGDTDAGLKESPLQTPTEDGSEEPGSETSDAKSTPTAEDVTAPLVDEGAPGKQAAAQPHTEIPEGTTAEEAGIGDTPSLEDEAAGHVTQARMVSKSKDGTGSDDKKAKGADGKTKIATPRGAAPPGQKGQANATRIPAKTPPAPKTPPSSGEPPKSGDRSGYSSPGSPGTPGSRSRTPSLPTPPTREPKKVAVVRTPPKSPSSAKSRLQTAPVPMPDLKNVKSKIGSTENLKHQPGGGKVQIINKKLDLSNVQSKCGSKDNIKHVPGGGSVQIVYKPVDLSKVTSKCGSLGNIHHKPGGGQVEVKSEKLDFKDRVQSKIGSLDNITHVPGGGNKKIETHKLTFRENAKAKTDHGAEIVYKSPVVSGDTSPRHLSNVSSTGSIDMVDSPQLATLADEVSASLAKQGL

Broadly, the pKd is −log10 of the Kd, conventionally taken in molar units. A high value points to a small Kd. `Cc1ccc(C(=O)Nc2ccc(S(=O)(=O)O)c3cc(S(=O)(=O)O)cc(S(=O)(=O)O)c23)cc1NC(=O)c1cccc(NC(=O)Nc2cccc(C(=O)Nc3cc(C(=O)Nc4ccc(S(=O)(=O)O)c5cc(S(=O)(=O)O)cc(S(=O)(=O)O)c45)ccc3C)c2)c1` [suramin] gave a negative logarithm of the Kd (pKd) of around 4.77.
